Patent US8252748B2, “Peptide derived from neurotensin receptor 3 and use thereof in the treatment of psychiatric diseases” (Centre National de la Recherche Scientifique—CNRS, priority 2007, dated 2012)
No end group written: not given here.

How the values were obtained:
Format in all cases: in vivo, mouse
C57BL6/J mice [1] = assay: Tail flick test of sensitivity to pain; conditions: bath at 48° C.; 100 μl at 10^−6 M; 30 minutes after injection
Method: This test consists of immersing the tail of a mouse in a bath at 48° C. and measuring the time it takes to withdraw it from the bath. Before any injections, a habituation test was carried out on the mouse. It consists of immersing the tail of each animal twice in the bath so as to have homogeneous groups before any treatment (obtaining a reaction time less than 12 seconds). Then the mice were injected with 100 μl of physiological saline solution (“PHYS SALINE”) or 100 μl of peptide of sequence ID No. 2 at a concentration of 10^−6 M (“PE 10^−6M”).
(§1) The mice used were C57BL6/J mice. Each group was constituted of 10 mice.
(§2) The measurements were taken 30 minutes after injection.
The difference was evaluated using the Student t test.

[2] = system: hippocampus progenitor cells; assay: Hippocampal neurogenesis (BrdU-positive cells), 2 weeks of treatment; conditions: 10 μM propeptide injected for 2 weeks
Method: Treatments with antidepressants are known to increase neurogenesis in the hippocampus (Santarelli, L., Saxe, M, Gross, C, Surget, A, Battaglia, F, Dulawa, S, Weisstaub, N, Lee, J, Duman, R, Arancio, O, Belzung, C, Hen, R et al. “Requirement of hippocampal neurogenesis for the behavioral effects of antidepressants” Science, 301: 805-809 (2003) (24). This cellular proliferation is measured from the increase of “progenitor” cells that incorporate a marker, 5-bromo-2-deoxyuridine (BrdU), and are transformed to mature neurons. The BrdU is detected by immunohistochemistry.
On day 1, the animals are injected IP with 300 μl of an aqueous solution of 10 mM of BrdU, then put back in the cage.
On day 2, the animals are euthanased and then the tissues are fixed by intracardiac perfusion of a cold solution of 4% paraformaldehyde. The brains are removed and then frozen at −20° C.
Series of 40 μm sections are prepared, so as to cover the entire hippocampal structure, using a vibratome (Leica). One section out of six is retained for measuring the incorporation of BrdU by means of a monoclonal mouse anti-BrdU antibody (Becton Dickinson). […] The peroxidase activity is visualized by hydrolysis of DAB. The cells labeled in this way are counted on each section. […]

C57BL6/J mice [3] = assay: Hot plate test of sensitivity to pain; conditions: IV 100 μl at 10^−6 M, 30 minutes after injection
Method: Sensitivity to pain was measured with two tests: the hot plate test and the “tail flick” test.
This test consists of measuring the time that a mouse licks its hind paws when it is put on a plate maintained at a given temperature. Two temperatures were used: 50 and 56° C.
as §1
The sensitivity to heat was then measured on the three groups of mice and the results obtained were compared.
as §2
The statistical difference was measured using the one-factor ANOVA test followed by the post-hoc test.

## APLPRWSGPIGVSWGLR [propeptide, APLPRWSGPIGVSWGLR]
C57BL6/J mice [1]
  time to withdraw tail from bath: 8.3 ± 0.7 s
[2]
  neurogenesis (BrdU-labeled cells): considerable neurogenesis comparable to that induced by fluoxetine
C57BL6/J mice [3]; 50° C.
  reaction time on hot plate: 21.1 ± 1.5 s
C57BL6/J mice [3]; 56° C.
  reaction time on hot plate: 4.6 ± 0.9 s
